From paper PMC4949516 (Chemmedchem, 2016)

Columns and labels:
PKA catalytic subunit = biological target: T1, PKA catalytic subunit (Bos taurus, UniProt P00517); assay: fluorescence polarisation competition with compound […]; type: binding
T1 construct: gene PRKACA; native catalytic subunit purified from bovine heart PKA (P5511) by column chromatography

[1] = biological target: T2, PKA (cAMP-dependent protein kinase), semi-pure tetramer (Bos taurus, UniProt P00517); assay: fluorescence polarisation saturation binding, one-site fit; settings: read-out: binding constant
T2 construct: gene PRKACA; native, semi-pure from bovine heart; whole tetramer of two catalytic and two regulatory subunits; with cAMP-dependent protein kinase type II-alpha regulatory subunit

IC50 (PKA catalytic subunit) [nM] | Kd [1] [nM] | Structure (SMILES)
3900 |  | CC1CNCCN1S(=O)(=O)c1cccc2cnccc12 (centres unmarked) [H‐7]
 | 44 | CO[C@@H]1[C@H](N(C)CC(=O)NCCNC(=O)CCC(=O)NCCOCCOCCNC(=S)Nc2ccc(-c3c4ccc(=O)cc-4oc4cc(O)ccc34)c(C(=O)O)c2)C[C@H]2O[C@]1(C)n1c3ccccc3c3c4c(c5c6ccccc6n2c5c31)C(=O)NC4 [compound 8, 2‐(6‐Hydroxy‐3‐oxo‐3H‐xanthen‐9‐yl)‐5‐(3‐(2‐((5R,7R,8R,9S)‐8‐methoxy‐9‐methyl‐16‐oxo‐6,7,8,9,15,16‐hexahydro‐5H,14H‐17‐oxa‐4b,9a,15‐triaza‐5,9‐methanodibenzo[b,h]cyclonona[jkl]‐cyclopenta[e]‐as‐indacen‐7‐yl)‐4,9,12‐trioxo‐16,19‐dioxa‐2,5,8,13‐tetraazahenicosan‐21‐yl)thioureido)benzoic acid]
